In US20200247855A1, “THERAPY AND DIAGNOSTICS” (OXFORD UNIVERSITY INNOVATION LIMITED, priority 2017, published 2020):
Residues, ends and D or L forms follow the SMILES beside them. *: point of attachment. FITC = O=C1OC2(c3ccc(O)cc3Oc3cc(O)ccc32)c2ccc(NC(=S)*)cc21

molecular target: T1, CCL8 (Homo sapiens, UniProt P80075); assay: Fluorescence polarisation (anisotropy) assay; format: binding; details: BK1.1FITC Ala mutants, CCL8
T1 construct: SUMO (in-house protein only) (cleaved yes); made in house; host or cells: Escherichia coli RosettaGami 2 (DE3)
T1 sequence (P80075 24-99): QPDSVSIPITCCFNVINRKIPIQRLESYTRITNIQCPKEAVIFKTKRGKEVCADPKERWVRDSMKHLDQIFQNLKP
Excerpt: FIG. 14. Characterisation of P672_PEP-FITC by fluorescence polarisation. […] Residue C30 was mutated to A to avoid an unpaired cysteine residue. The residues corresponding to the above peptide are wholly contained within the CCL8-binding region of P672_RHIPU transferred in the hybrid evasin P672:EVA1 (SEQ ID 76, see FIG. 5). […] (SEQ ID NO: 90). FIG. 14(A). […] The curve was fitted to the two site-total and non-specific binding model in GraphPad Prism 6. Data are shown as mean and SEM of three independent experiments, with each independent experiment performed as three technical replicates. The affinity constant Kd was calculated in GraphPad Prism from the curve fit with the standard error reported.
FIG. 14(B). […] The measured fluorescence anisotropy (y-axis) of P672_PEP-FITC (50 nM) following binding to a fixed dose (1 μM)) of CCL7, CCL8, CCL18 and CXCL1 (negative control). […] Statistical significance was determined using one-way ANOVA with Sidak's correction for multiple comparisons using Graph Pad Prism 6. **=p<0.005, ****=P<0.00005, ns=not significant.
FIG. 15(C). […] In each case 100 μM (++) or […] (+) of P672_PEP was incubated with P672_PEP-FITC (50 nM)/chemokine (1 μM CCL7 and CCL18; 500 nM CCL8) and the resulting anisotropy measured. […] Experiment carried out in triplicate where each data point is the average of one experiment carried out in technical triplicate. Mean with SEM shown and statistical significance was determined using one-way ANOVA with Sidak's correction for multiple comparisons using Graph Pad Prism 6. *=p<0.05, ***=p<0.0005, ****=P<0.00005, ns=not significant.
Fluorescence polarization assays were performed using a Clariostar (BMG Tech) plate reader with the supplied FITC excitation and emission filters using 96 half area well plates (Corning). The buffer used (FP assay buffer) was 50 mM HEPES, 150 mM NaCl, 0.1% BSA, 0.002% TWEEN-20, 0.2% DMSO, pH 7.4 and the final volume in each well was 30 μL. Polarization was converted to anisotropy using the equation A=(2*P)/(3−P) where P is polarization and A is anisotropy. For each peptide tested the gain was set to 35 mP and adjusted to a well containing fluorescent peptide only. The polarization of the emitted light in the FITC emission channel was then determined. Experiments were performed as two technical and three biological replicates. Screening of P672 peptide fragments was achieved through incubation of each peptide (50 nM) with 1 μM CCL8 (Peprotech) for 30 minutes in FP assay buffer and the resulting anisotropy of the emitted light determined as above. The chemokine cross binding screen was performed by incubating 1 μM chemokine (Peprotech) with 50 nM BK1.1FITC for half an hour in FP assay buffer and the resulting anisotropy of the emitted light determined as above. […] The anisotropy was plotted as a function of CCL8 concentration and fitted to the equation: Y=Bmax*X/(KD+X)+NS*X+Background, where Y is the measured anisotropy, X is the concentration of CCL8 added, Bmax is the maximum binding, KD is the equilibrium dissociation constant, NS is the slope of the nonlinear regression and Background is the anisotropy when no CCL8 is present, in Graph Pad Prism. Displacement assays were carried out with CCL7, CCL8, and CCL18 (Peprotech, 1 μM). […] For all FP assays, the experiments were carried out as two technical and three biological replicates.

Structure (SMILES) | Fold change (Kd versus WT)
CC(C)[C@H](NC(=O)[C@@H]1CCCN1C(=O)[C@H](CCCCN)NC(=O)[C@H](Cc1ccccc1)NC(=O)[C@H](Cc1ccccc1)NC(=O)[C@H](CC(=O)O)NC(=O)[C@H](CCC(=O)O)NC(=O)[C@H](Cc1ccc(O)cc1)NC(=O)[C@H](CC(=O)O)NC(=O)[C@H](CCC(=O)O)NC(=O)[C@H](C)NC(=O)[C@H](CCC(=O)O)NC(=S)Nc1ccc2c(c1)C(=O)OC21c2ccc(O)cc2Oc2cc(O)ccc21)C(=O)N[C@H](C(=O)N[C@@H](C)C(=O)N[C@@H](Cc1ccc(O)cc1)C(=O)N[C@@H](Cc1ccccc1)C(N)=O)[C@@H](C)O [D18A] ({FITC}-EAEDYEDFFKPVTAYF-NH2) | 2.5
CC(C)[C@H](NC(=O)[C@@H]1CCCN1C(=O)[C@H](CCCCN)NC(=O)[C@H](Cc1ccccc1)NC(=O)[C@H](Cc1ccccc1)NC(=O)[C@H](CC(=O)O)NC(=O)[C@H](CCC(=O)O)NC(=O)[C@H](Cc1ccc(O)cc1)NC(=O)[C@H](C)NC(=O)[C@H](CCC(=O)O)NC(=O)[C@H](CC(=O)O)NC(=O)[C@H](CCC(=O)O)NC(=S)Nc1ccc2c(c1)C(=O)OC21c2ccc(O)cc2Oc2cc(O)ccc21)C(=O)N[C@H](C(=O)N[C@@H](C)C(=O)N[C@@H](Cc1ccc(O)cc1)C(=O)N[C@@H](Cc1ccccc1)C(N)=O)[C@@H](C)O [D20A] ({FITC}-EDEAYEDFFKPVTAYF-NH2) | 1.5
CC(C)[C@H](NC(=O)[C@@H]1CCCN1C(=O)[C@H](CCCCN)NC(=O)[C@H](Cc1ccccc1)NC(=O)[C@H](Cc1ccccc1)NC(=O)[C@H](C)NC(=O)[C@H](CCC(=O)O)NC(=O)[C@H](Cc1ccc(O)cc1)NC(=O)[C@H](CC(=O)O)NC(=O)[C@H](CCC(=O)O)NC(=O)[C@H](CC(=O)O)NC(=O)[C@H](CCC(=O)O)NC(=S)Nc1ccc2c(c1)C(=O)OC21c2ccc(O)cc2Oc2cc(O)ccc21)C(=O)N[C@H](C(=O)N[C@@H](C)C(=O)N[C@@H](Cc1ccc(O)cc1)C(=O)N[C@@H](Cc1ccccc1)C(N)=O)[C@@H](C)O [D23A] ({FITC}-EDEDYEAFFKPVTAYF-NH2) | 1.5
CC(C)[C@H](NC(=O)[C@@H]1CCCN1C(=O)[C@H](CCCCN)NC(=O)[C@H](Cc1ccccc1)NC(=O)[C@H](Cc1ccccc1)NC(=O)[C@H](CC(=O)O)NC(=O)[C@H](CCC(=O)O)NC(=O)[C@H](Cc1ccc(O)cc1)NC(=O)[C@H](CC(=O)O)NC(=O)[C@H](CCC(=O)O)NC(=O)[C@H](CC(=O)O)NC(=O)[C@H](C)NC(=S)Nc1ccc2c(c1)C(=O)OC21c2ccc(O)cc2Oc2cc(O)ccc21)C(=O)N[C@H](C(=O)N[C@@H](C)C(=O)N[C@@H](Cc1ccc(O)cc1)C(=O)N[C@@H](Cc1ccccc1)C(N)=O)[C@@H](C)O [E17A] ({FITC}-ADEDYEDFFKPVTAYF-NH2) | 1.2
CC(C)[C@H](NC(=O)[C@@H]1CCCN1C(=O)[C@H](CCCCN)NC(=O)[C@H](Cc1ccccc1)NC(=O)[C@H](Cc1ccccc1)NC(=O)[C@H](CC(=O)O)NC(=O)[C@H](CCC(=O)O)NC(=O)[C@H](Cc1ccc(O)cc1)NC(=O)[C@H](CC(=O)O)NC(=O)[C@H](C)NC(=O)[C@H](CC(=O)O)NC(=O)[C@H](CCC(=O)O)NC(=S)Nc1ccc2c(c1)C(=O)OC21c2ccc(O)cc2Oc2cc(O)ccc21)C(=O)N[C@H](C(=O)N[C@@H](C)C(=O)N[C@@H](Cc1ccc(O)cc1)C(=O)N[C@@H](Cc1ccccc1)C(N)=O)[C@@H](C)O [E19A] ({FITC}-EDADYEDFFKPVTAYF-NH2) | 2.1
CC(C)[C@H](NC(=O)[C@@H]1CCCN1C(=O)[C@H](CCCCN)NC(=O)[C@H](Cc1ccccc1)NC(=O)[C@H](Cc1ccccc1)NC(=O)[C@H](CC(=O)O)NC(=O)[C@H](C)NC(=O)[C@H](Cc1ccc(O)cc1)NC(=O)[C@H](CC(=O)O)NC(=O)[C@H](CCC(=O)O)NC(=O)[C@H](CC(=O)O)NC(=O)[C@H](CCC(=O)O)NC(=S)Nc1ccc2c(c1)C(=O)OC21c2ccc(O)cc2Oc2cc(O)ccc21)C(=O)N[C@H](C(=O)N[C@@H](C)C(=O)N[C@@H](Cc1ccc(O)cc1)C(=O)N[C@@H](Cc1ccccc1)C(N)=O)[C@@H](C)O [E22A] ({FITC}-EDEDYADFFKPVTAYF-NH2) | 4.0
CC(C)[C@H](NC(=O)[C@@H]1CCCN1C(=O)[C@H](CCCCN)NC(=O)[C@H](Cc1ccccc1)NC(=O)[C@H](C)NC(=O)[C@H](CC(=O)O)NC(=O)[C@H](CCC(=O)O)NC(=O)[C@H](Cc1ccc(O)cc1)NC(=O)[C@H](CC(=O)O)NC(=O)[C@H](CCC(=O)O)NC(=O)[C@H](CC(=O)O)NC(=O)[C@H](CCC(=O)O)NC(=S)Nc1ccc2c(c1)C(=O)OC21c2ccc(O)cc2Oc2cc(O)ccc21)C(=O)N[C@H](C(=O)N[C@@H](C)C(=O)N[C@@H](Cc1ccc(O)cc1)C(=O)N[C@@H](Cc1ccccc1)C(N)=O)[C@@H](C)O [F24A] ({FITC}-EDEDYEDAFKPVTAYF-NH2) | 1.5
CC(C)[C@H](NC(=O)[C@@H]1CCCN1C(=O)[C@H](CCCCN)NC(=O)[C@H](C)NC(=O)[C@H](Cc1ccccc1)NC(=O)[C@H](CC(=O)O)NC(=O)[C@H](CCC(=O)O)NC(=O)[C@H](Cc1ccc(O)cc1)NC(=O)[C@H](CC(=O)O)NC(=O)[C@H](CCC(=O)O)NC(=O)[C@H](CC(=O)O)NC(=O)[C@H](CCC(=O)O)NC(=S)Nc1ccc2c(c1)C(=O)OC21c2ccc(O)cc2Oc2cc(O)ccc21)C(=O)N[C@H](C(=O)N[C@@H](C)C(=O)N[C@@H](Cc1ccc(O)cc1)C(=O)N[C@@H](Cc1ccccc1)C(N)=O)[C@@H](C)O [F25A] ({FITC}-EDEDYEDFAKPVTAYF-NH2) | 4.6
CC(C)[C@H](NC(=O)[C@@H]1CCCN1C(=O)[C@H](CCCCN)NC(=O)[C@H](Cc1ccccc1)NC(=O)[C@H](Cc1ccccc1)NC(=O)[C@H](CC(=O)O)NC(=O)[C@H](CCC(=O)O)NC(=O)[C@H](Cc1ccc(O)cc1)NC(=O)[C@H](CC(=O)O)NC(=O)[C@H](CCC(=O)O)NC(=O)[C@H](CC(=O)O)NC(=O)[C@H](CCC(=O)O)NC(=S)Nc1ccc2c(c1)C(=O)OC21c2ccc(O)cc2Oc2cc(O)ccc21)C(=O)N[C@H](C(=O)N[C@@H](C)C(=O)N[C@@H](Cc1ccc(O)cc1)C(=O)N[C@@H](C)C(N)=O)[C@@H](C)O [F32A] ({FITC}-EDEDYEDFFKPVTAYA-NH2) | 2.3
CC(C)[C@H](NC(=O)[C@@H]1CCCN1C(=O)[C@H](C)NC(=O)[C@H](Cc1ccccc1)NC(=O)[C@H](Cc1ccccc1)NC(=O)[C@H](CC(=O)O)NC(=O)[C@H](CCC(=O)O)NC(=O)[C@H](Cc1ccc(O)cc1)NC(=O)[C@H](CC(=O)O)NC(=O)[C@H](CCC(=O)O)NC(=O)[C@H](CC(=O)O)NC(=O)[C@H](CCC(=O)O)NC(=S)Nc1ccc2c(c1)C(=O)OC21c2ccc(O)cc2Oc2cc(O)ccc21)C(=O)N[C@H](C(=O)N[C@@H](C)C(=O)N[C@@H](Cc1ccc(O)cc1)C(=O)N[C@@H](Cc1ccccc1)C(N)=O)[C@@H](C)O [K26A] ({FITC}-EDEDYEDFFAPVTAYF-NH2) | 0.8
CC(C)[C@H](NC(=O)[C@@H]1CCCN1C(=O)[C@H](CCCCN)NC(=O)[C@H](Cc1ccccc1)NC(=O)[C@H](Cc1ccccc1)NC(=O)[C@H](CC(=O)O)NC(=O)[C@H](CCC(=O)O)NC(=O)[C@H](Cc1ccc(O)cc1)NC(=O)[C@H](CC(=O)O)NC(=O)[C@H](CCC(=O)O)NC(=O)[C@H](CC(=O)O)NC(=O)[C@H](CCC(=O)O)NC(=S)Nc1ccc2c(c1)C(=O)OC21c2ccc(O)cc2Oc2cc(O)ccc21)C(=O)N[C@@H](C)C(=O)N[C@@H](C)C(=O)N[C@@H](Cc1ccc(O)cc1)C(=O)N[C@@H](Cc1ccccc1)C(N)=O [T29A] ({FITC}-EDEDYEDFFKPVAAYF-NH2) | 2.0
